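Abbreviation: GI50, concentration required for 50% inhibition of growth. Definition used: TGI = concentration required for complete inhibition of growth.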
How the values were obtained:
Test in all cases: NCI anticancer screen, dose series, 384-well format
[1] = test system: CAKI-1 renal
[2] = test system: MDA-MB-231 breast
[3] = test system: ACHN renal
[4] = test system: HOP-62 NSCLC
[5] = test system: SK-MEL-5 melanoma
[6] = test system: PC-3 prostate
[7] = test system: CCRF-CEM leukemia
[8] = test system: A549 NSCLC
[9] = test system: SF-268 CNS
[10] = test system: NCI-H522 lung
[11] = test system: HCT-116 colon
[12] = test system: EKVX NSCLC
[13] = test system: HS 578T breast
[14] = test system: BT-549 breast
[15] = test system: COLO 205 colon
[16] = test system: HOP-92 NSCLC
[17] = test system: SF-295 CNS
[18] = test system: NCI-H23 lung
[19] = test system: NCI/ADR-RES ovarian
[20] = test system: HCC-2998 colon
[21] = test system: MOLT-4 leukemia
[22] = test system: SNB-75 CNS
[23] = test system: SF-539 CNS
[24] = test system: KM12 colon
[25] = test system: OVCAR-5 ovarian
[26] = test system: SK-MEL-2 melanoma
[27] = test system: TK-10 renal
[28] = test system: NCI-H460 NSCLC
[29] = test system: OVCAR-8 ovarian
[30] = test system: SK-MEL-28 melanoma
[31] = test system: OVCAR-4 ovarian
[32] = test system: IGROV1 ovarian
[33] = test system: HT29 colon
[34] = test system: A498 renal
[35] = test system: HCT-15 colon
[36] = test system: MALME-3M melanoma
[37] = test system: SK-OV-3 ovarian
[38] = test system: 786-0 renal
[39] = test system: DU-145 prostate
[40] = test system: NCI-H226 lung
[41] = test system: SW-620 colon
[42] = test system: K-562 leukemia
[43] = test system: LOX IMVI melanoma
[44] = test system: SNB-19 CNS
[45] = test system: MCF7 breast
[46] = test system: UACC-257 melanoma
[47] = test system: U251 glioblastoma

For O=C(Nc1cccc(NS(=O)(=O)c2ccc(F)cc2)c1)c1ccc(-c2ccccc2)cc1, the GI50 [1] was 5.85 µM, the TGI [1] was 26.6 µM and the GI50 [2] was 3.72 µM. It also gave a TGI [2] of 18.3 µM, a GI50 [3] of 4.13 µM and a TGI [3] of 21.6 µM. For the same compound, the GI50 [4] was 3.85 µM, the TGI [4] was 11.6 µM and the GI50 [5] was 2.56 µM. The TGI [5] was 7.94 µM, the GI50 [6] was 3.36 µM and the TGI [6] was 11.5 µM. For the same compound, the GI50 [7] was 2.33 µM, the TGI [7] was 5.8 µM and the GI50 [8] was 4.07 µM. The TGI [8] was greater than 100 µM, the GI50 [9] was 3.93 µM and the TGI [9] was 17.2 µM. For the same compound, the GI50 [10] was 3.6 µM, the TGI [10] was 15.2 µM and the GI50 [11] was 3.54 µM. For the same compound, the TGI [11] was 12.6 µM, the GI50 [12] was 3.09 µM and the TGI [12] was 12.3 µM. It also gave a GI50 [13] of 3.7 µM, a TGI [13] of 15.3 µM and a GI50 [14] of 2.89 µM. For the same compound, the TGI [14] was 8.64 µM, the GI50 [15] was 4.33 µM and the TGI [15] was 17.2 µM. It also gave a GI50 [16] of 2.94 µM, a TGI [16] of 8.32 µM and a GI50 [17] of 2.79 µM. It also gave a TGI [17] of 10.1 µM, a GI50 [18] of 2.53 µM and a TGI [18] of 8.44 µM. It also gave a GI50 [19] of 2.55 µM, a TGI [19] of 9.38 µM and a GI50 [20] of 6.02 µM. It also gave a TGI [20] of 21.2 µM, a GI50 [21] of 1.81 µM and a TGI [21] of 3.64 µM. The GI50 [22] was 5.65 µM, the TGI [22] was 25.1 µM and the GI50 [23] was 3.17 µM. It also gave a TGI [23] of 11.1 µM, a GI50 [24] of 3.62 µM and a TGI [24] of 13.2 µM. For the same compound, the GI50 [25] was 7.57 µM, the TGI [25] was 26.7 µM and the GI50 [26] was 12.9 µM. The TGI [26] was 26.3 µM, the GI50 [27] was 4.17 µM and the TGI [27] was 19.2 µM. For the same compound, the GI50 [28] was 3.23 µM, the TGI [28] was 10.4 µM and the GI50 [29] was 3.57 µM. For the same compound, the TGI [29] was 13.3 µM, the GI50 [30] was 17.1 µM and the TGI [30] was 38.5 µM. The GI50 [31] was 3.85 µM, the TGI [31] was 18.2 µM and the GI50 [32] was 10.4 µM. The TGI [32] was 37.1 µM, the GI50 [33] was 4.49 µM and the TGI [33] was 21.5 µM. The GI50 [34] was 4.4 µM, the TGI [34] was 16.8 µM and the GI50 [35] was 4.05 µM. For the same compound, the TGI [35] was 19.5 µM, the GI50 [36] was 4.23 µM and the TGI [36] was 17.4 µM. It also gave a GI50 [37] of 5.43 µM, a TGI [37] of 28.3 µM and a GI50 [38] of 2.95 µM. It also gave a TGI [38] of 10.6 µM, a GI50 [39] of 4.44 µM and a TGI [39] of 26.5 µM. It also gave a GI50 [40] of 5.91 µM, a TGI [40] of 20.7 µM and a GI50 [41] of 4.54 µM. The TGI [41] was 16.2 µM, the GI50 [42] was 2.6 µM and the TGI [42] was 11.2 µM. The GI50 [43] was 3.31 µM, the TGI [43] was 11.4 µM and the GI50 [44] was 4.04 µM. The TGI [44] was 21.7 µM, the GI50 [45] was 4.23 µM and the TGI [45] was 14.4 µM. For the same compound, the GI50 [46] was 4.02 µM, the TGI [46] was 16.7 µM and the GI50 [47] was 2.35 µM. The TGI [47] was 5.72 µM.
